Experimental data taken from patent publication US9637453B2, “3-spirocyclic-6-hydroxamic acid tetralins as HDAC inhibitors” (Forma Therapeutics, Inc., priority 2015, dated 2017).
pIC50: −log10 of the molar value.

How the values were obtained:
[1] = biological target: T1, Full length human recombinant HDAC11 (Homo sapiens, UniProt Q96DB2); assay: In vitro histone deacetylase assay, enzymatic HDAC11 (electrophoretic mobility shift assay); type: biochemical; details: 10 nM HDAC11; 2 μM peptide substrate FAM-RHKK(tri-fluor-Ac)—NH2; 25° C.; 12 concentrations; read-out: HDAC11 Activity Range (IC50)
T1 construct: Full length human recombinant HDAC6 and HDAC11 proteins were expressed in baculoviral system
T1 sequence (Q96DB2 1-347): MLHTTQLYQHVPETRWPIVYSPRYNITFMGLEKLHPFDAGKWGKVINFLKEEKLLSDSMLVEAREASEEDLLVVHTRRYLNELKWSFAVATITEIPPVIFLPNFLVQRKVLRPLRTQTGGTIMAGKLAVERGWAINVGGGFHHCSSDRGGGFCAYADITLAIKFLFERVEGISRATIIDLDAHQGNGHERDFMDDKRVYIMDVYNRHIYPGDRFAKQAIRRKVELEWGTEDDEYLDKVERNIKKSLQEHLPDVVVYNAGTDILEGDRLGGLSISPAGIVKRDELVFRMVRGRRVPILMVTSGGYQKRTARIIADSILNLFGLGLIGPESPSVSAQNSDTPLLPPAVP
Summary of the method: (§1)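 Baculovirus-expressed full-length enzymes (HDAC6 1 nM, FAM-RHKK(Ac)-NH2; HDAC11 10 nM, FAM-RHKK(tri-fluor-Ac)-NH2), 2 μM substrate, HEPES pH 7.5, 25°C, 12-point 3× dilutions. Product/substrate separated by microfluidic mobility shift after SDS quench; IC50 from 4-parameter fit, reported as +/++/+++ bins.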

[2] = biological target: T2, Full length human recombinant HDAC6 (Homo sapiens, UniProt Q9UBN7); assay: In vitro histone deacetylase assay, enzymatic HDAC6 (electrophoretic mobility shift assay); type: biochemical; details: 1 nM HDAC6; 2 μM peptide substrate FAM-RHKK(Ac)—NH2; 25° C.; 12 concentrations; read-out: HDAC6 Activity Range (IC50)
T2 construct: Full length human recombinant HDAC6 and HDAC11 proteins were expressed in baculoviral system
T2 sequence (Q9UBN7 1-1215): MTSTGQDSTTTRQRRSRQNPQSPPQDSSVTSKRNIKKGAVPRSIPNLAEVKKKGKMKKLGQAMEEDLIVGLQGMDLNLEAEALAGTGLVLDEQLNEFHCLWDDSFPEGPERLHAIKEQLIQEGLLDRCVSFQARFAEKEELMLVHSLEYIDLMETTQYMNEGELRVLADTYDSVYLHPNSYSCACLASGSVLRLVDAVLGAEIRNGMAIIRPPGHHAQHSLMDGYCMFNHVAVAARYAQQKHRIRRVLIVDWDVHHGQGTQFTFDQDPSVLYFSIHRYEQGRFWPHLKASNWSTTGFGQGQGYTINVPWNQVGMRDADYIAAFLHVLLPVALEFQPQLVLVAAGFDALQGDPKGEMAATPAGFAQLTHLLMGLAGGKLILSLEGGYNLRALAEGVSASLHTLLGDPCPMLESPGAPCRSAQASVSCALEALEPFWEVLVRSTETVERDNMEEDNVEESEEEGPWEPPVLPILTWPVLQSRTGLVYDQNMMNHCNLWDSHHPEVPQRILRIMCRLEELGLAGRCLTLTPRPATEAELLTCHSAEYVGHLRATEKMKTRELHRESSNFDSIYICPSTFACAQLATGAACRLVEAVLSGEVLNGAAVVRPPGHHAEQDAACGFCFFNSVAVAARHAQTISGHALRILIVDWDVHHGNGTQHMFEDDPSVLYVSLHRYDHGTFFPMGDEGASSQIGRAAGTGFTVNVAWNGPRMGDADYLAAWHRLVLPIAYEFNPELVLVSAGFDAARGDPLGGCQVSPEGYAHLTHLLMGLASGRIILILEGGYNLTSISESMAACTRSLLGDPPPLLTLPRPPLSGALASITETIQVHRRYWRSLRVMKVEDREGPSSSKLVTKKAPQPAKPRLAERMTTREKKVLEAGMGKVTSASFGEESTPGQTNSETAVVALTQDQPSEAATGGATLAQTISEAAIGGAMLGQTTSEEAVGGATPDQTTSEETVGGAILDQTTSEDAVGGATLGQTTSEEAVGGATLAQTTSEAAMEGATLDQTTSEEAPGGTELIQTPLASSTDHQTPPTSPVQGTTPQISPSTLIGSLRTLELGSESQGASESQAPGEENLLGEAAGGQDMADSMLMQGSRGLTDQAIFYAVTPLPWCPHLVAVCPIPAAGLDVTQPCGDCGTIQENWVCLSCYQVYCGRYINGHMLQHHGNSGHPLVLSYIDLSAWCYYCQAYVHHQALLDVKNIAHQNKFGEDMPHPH
Summary of the method: as §1

Structure (SMILES)	pIC50 [1]	pIC50 [2]
COCCN1CC[C@@]2(CCc3ccc(C(=O)NO)cc3C2)C1=O [Compound I-56, (S)—N-hydroxy-1′-(2-methoxyethyl)-2′-oxo-3,4-dihydro-1H-spiro[naphthalene-2,3′-pyrrolidine]-7-carboxamide]	< 6.30	≥ 7.00
O=C(NO)c1ccc2c(c1)C[C@@]1(CC2)CCN(CC2CCOCC2)C1=O [Compound I-57, (S)—N-hydroxy-2′-oxo-1′-((tetrahydro-2H-pyran-4-yl)methyl)-3,4-dihydro-1H-spiro[naphthalene-2,3′-pyrrolidine]-7-carboxamide]	< 6.30	≥ 7.00
O=C(NO)c1ccc2c(c1)C[C@@]1(CC2)CCN(Cc2ccc3nonc3c2)C1=O [Compound I-63, (S)-1′-(benzo[c][1,2,5]oxadiazol-5-ylmethyl)-N-hydroxy-2′-oxo-3,4-dihydro-1H-spiro[naphthalene-2,3′-pyrrolidine]-7-carboxamide]	< 6.30	≥ 7.00
O=C(NO)c1ccc2c(c1)C[C@@]1(CC2)CCN(CC(=O)N2CCOCC2)C1=O [Compound I-64, (S)—N-hydroxy-1′-(2-morpholino-2-oxoethyl)-2′-oxo-3,4-dihydro-1H-spiro[naphthalene-2,3′-pyrrolidine]-7-carboxamide]	< 6.30	≥ 7.00
CC(C)n1c(CN2CC[C@@]3(CCc4ccc(C(=O)NO)cc4C3)C2=O)nc2ccccc21 [Compound I-66, (S)—N-hydroxy-1′-((1-isopropyl-1H-benzo[d]imidazol-2-yl)methyl)-2′-oxo-3,4-dihydro-1H-spiro[naphthalene-2,3′-pyrrolidine]-7-carboxamide]	< 6.30	≥ 7.00

The next lines start with the values.

pIC50 [1]	pIC50 [2]	Structure (SMILES)
6.30 to 7.00	≥ 7.00	O=C(NO)c1ccc2c(c1)C[C@@]1(CC2)CCN(C/C=C/c2ccccc2)C1=O [Compound I-58, (S)-1′-cinnamyl-N-hydroxy-2′-oxo-3,4-dihydro-1H-spiro[naphthalene-2,3′-pyrrolidine]-7-carboxamide]
< 6.30	≥ 7.00	Cc1ccccc1CN1CC[C@@]2(CCc3ccc(C(=O)NO)cc3C2)C1=O [Compound I-59, (S)—N-hydroxy-1′-(2-methylbenzyl)-2′-oxo-3,4-dihydro-1H-spiro[naphthalene-2,3′-pyrrolidine]-7-carboxamide]
< 6.30	≥ 7.00	O=C(NO)c1ccc2c(c1)C[C@@]1(CC2)CCN(Cc2ccccc2C(F)(F)F)C1=O [Compound I-60, (S)—N-hydroxy-2′-oxo-1′-(2-(trifluoromethyl)benzyl)-3,4-dihydro-1H-spiro[naphthalene-2,3′-pyrrolidine]-7-carboxamide]
< 6.30	≥ 7.00	O=C(NO)c1ccc2c(c1)C[C@@]1(CC2)CCN(Cc2ccccc2Cl)C1=O [Compound I-61, (S)-1′-(2-chlorobenzyl)-N-hydroxy-2′-oxo-3,4-dihydro-1H-spiro[naphthalene-2,3′-pyrrolidine]-7-carboxamide]
< 6.30	6.30 to 7.00	O=C(NO)c1ccc2c(c1)C[C@@]1(CC2)CCN(Cc2ccccc2OC(F)(F)F)C1=O [Compound I-62, (S)—N-hydroxy-2′-oxo-1′-(2-(trifluoromethoxy)benzyl)-3,4-dihydro-1H-spiro[naphthalene-2,3′-pyrrolidine]-7-carboxamide]
< 6.30	≥ 7.00	COc1ccccc1CN1CC[C@@]2(CCc3ccc(C(=O)NO)cc3C2)C1=O [Compound I-65, (S)—N-hydroxy-1′-(2-methoxybenzyl)-2′-oxo-3,4-dihydro-1H-spiro[naphthalene-2,3′-pyrrolidine]-7-carboxamide]
< 6.30	6.30 to 7.00	O=C(NO)c1ccc2c(c1)C[C@@]1(CC2)CCN(Cc2cc(Cl)ccc2Cl)C1=O [Compound I-67, (S)-1′-(2,5-dichlorobenzyl)-N-hydroxy-2′-oxo-3,4-dihydro-1H-spiro[naphthalene-2,3′-pyrrolidine]-7-carboxamide]
